From patent US20120270237A9, “METHODS FOR THE IDENTIFICATION OF KINASE INTERACTING MOLECULES AND FOR THE PURIFICATION OF KINASE PROTEINS” (Cellzone AG, priority 2009, published 2012)

Columns and labels:
Assay in all cases: Kinobeads competition binding, L-363 cell lysate
Parameters in all cases: endogenous in cells
Conditions in all cases: 10 μM free compound, L-363 lysate
CHK1 = CHK1 (Homo sapiens, UniProt O14757)
Description: (§1) To one aliquot of cell lysate 10 μM of the free compound (FIG. 3, CZC31326) was added and allowed to bind to proteins in the lysate. Then the affinity matrix with the immobilized compound was added to capture proteins that were not interacting with the previously added free compound. Beads were separated from the lysate and bead bound proteins were eluted in SDS sample buffer and subsequently separated by SDS-Polyacrylamide gel electrophoresis (FIG. 8). Suitable gel bands were cut out and subjected to in-gel proteolytic digestion with trypsin. The second lysate aliquot was processed identically, however no free compound was added (DMSO solvent control). Peptides originating from samples 1 and 2 were labeled with iTRAQ reagents (iTRAQ 114 and iTRAQ 117) and the combined samples were analyzed with a nano-flow liquid chromatography system coupled online to a tandem mass spectrometer (LC-MS/MS) experiment followed by iTRAQ reporter ion quantification in the MS/MS spectra as described in Example 2.
(§2) For this experiment the human plasma cell leukaemia line L-363 was used (German Collection of Microorganisms and Cell Cultures, DSMZ number ACC49, Braunschweig, Germany). Cells were treated for three hours with 20 μM of the proteasome inhibitor MG132 (Z-Leu-Leu-Leu-al, Sigma C2211) prior to cell harvesting.

CaMK2d = CaMK2d (Homo sapiens, UniProt Q13557)
Description: as §1, §2

CaMK2g = CaMK2g (Homo sapiens, UniProt Q13555)
Description: as §1, §2

GSK3B = GSK3B (Homo sapiens, UniProt P49841)
Description: as §1, §2

JNK1 = JNK1 (Homo sapiens, UniProt P45983)
Description: as §1, §2

LOK = LOK (Homo sapiens, UniProt O94804)
Description: as §1, §2

MAP2K3 = MAP2K3 (Homo sapiens, UniProt P46734)
Chain of MAP2K3 (P46734 whole entry): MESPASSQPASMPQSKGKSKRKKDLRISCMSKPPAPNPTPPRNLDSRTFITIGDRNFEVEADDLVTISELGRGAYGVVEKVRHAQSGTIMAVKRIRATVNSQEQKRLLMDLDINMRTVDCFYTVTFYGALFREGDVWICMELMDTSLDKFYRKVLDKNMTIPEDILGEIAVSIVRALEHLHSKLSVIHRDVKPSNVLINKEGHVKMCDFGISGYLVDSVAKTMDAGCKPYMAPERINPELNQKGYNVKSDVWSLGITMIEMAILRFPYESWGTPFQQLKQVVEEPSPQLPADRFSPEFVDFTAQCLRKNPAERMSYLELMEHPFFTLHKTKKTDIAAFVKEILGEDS
Description: as §1, §2

MARK3 = MARK3 (Homo sapiens, UniProt P27448)
Chain of MARK3 (P27448 whole entry): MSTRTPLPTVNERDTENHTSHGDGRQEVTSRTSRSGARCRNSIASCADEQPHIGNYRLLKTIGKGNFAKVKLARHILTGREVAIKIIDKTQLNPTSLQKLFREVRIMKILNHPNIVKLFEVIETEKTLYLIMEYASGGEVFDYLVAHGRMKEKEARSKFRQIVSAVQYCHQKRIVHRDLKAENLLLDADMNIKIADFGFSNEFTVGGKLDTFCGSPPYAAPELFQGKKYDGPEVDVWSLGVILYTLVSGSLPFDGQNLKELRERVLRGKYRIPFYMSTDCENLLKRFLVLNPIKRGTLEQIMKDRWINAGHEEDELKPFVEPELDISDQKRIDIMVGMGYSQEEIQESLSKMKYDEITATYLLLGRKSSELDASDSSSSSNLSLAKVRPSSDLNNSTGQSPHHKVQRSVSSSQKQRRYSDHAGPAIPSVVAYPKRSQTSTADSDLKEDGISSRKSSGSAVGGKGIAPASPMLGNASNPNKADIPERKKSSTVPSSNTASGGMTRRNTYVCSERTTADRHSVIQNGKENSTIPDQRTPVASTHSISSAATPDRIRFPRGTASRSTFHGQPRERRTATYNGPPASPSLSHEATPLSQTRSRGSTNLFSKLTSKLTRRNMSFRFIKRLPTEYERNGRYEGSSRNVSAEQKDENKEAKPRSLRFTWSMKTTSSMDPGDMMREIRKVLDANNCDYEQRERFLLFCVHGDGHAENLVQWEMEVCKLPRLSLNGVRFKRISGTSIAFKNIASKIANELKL
Description: as §1, §2

MLK3 = MLK3 (Homo sapiens, UniProt Q16584)
Chain of MLK3 (Q16584 whole entry): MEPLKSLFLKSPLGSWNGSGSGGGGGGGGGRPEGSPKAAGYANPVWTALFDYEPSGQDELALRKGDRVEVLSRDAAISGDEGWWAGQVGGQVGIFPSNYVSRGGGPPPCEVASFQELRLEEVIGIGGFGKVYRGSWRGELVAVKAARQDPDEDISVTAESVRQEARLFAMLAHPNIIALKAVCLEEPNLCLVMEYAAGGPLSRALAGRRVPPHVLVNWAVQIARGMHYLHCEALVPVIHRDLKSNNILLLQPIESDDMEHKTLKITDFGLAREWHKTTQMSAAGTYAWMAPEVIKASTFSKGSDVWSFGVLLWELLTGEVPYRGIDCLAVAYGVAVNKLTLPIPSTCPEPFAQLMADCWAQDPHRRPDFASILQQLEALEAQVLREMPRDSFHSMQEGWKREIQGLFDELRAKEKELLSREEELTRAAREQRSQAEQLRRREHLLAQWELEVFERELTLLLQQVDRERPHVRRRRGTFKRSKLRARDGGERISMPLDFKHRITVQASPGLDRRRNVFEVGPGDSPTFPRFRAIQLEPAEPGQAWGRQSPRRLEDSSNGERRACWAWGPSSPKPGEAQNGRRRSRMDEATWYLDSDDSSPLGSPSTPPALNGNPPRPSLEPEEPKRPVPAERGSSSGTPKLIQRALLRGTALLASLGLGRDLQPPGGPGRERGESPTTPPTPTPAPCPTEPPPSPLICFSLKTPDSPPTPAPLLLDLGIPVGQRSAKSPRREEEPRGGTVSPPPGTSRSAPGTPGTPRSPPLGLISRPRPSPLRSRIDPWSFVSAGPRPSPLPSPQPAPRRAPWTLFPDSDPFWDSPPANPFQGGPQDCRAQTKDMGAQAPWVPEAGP
Description: as §1, §2

MPSK1 = MPSK1 (Homo sapiens, UniProt O75716)
Chain of MPSK1 (O75716 whole entry): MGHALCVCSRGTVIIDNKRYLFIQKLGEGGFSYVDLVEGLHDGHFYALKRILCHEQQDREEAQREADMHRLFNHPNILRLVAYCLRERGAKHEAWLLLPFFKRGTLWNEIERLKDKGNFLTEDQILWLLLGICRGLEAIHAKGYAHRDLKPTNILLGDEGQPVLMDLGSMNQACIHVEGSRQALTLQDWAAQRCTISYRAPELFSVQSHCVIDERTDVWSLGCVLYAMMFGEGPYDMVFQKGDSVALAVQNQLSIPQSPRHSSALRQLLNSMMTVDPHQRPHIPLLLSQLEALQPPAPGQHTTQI
Description: as §1, §2

MST2 = MST2 (Homo sapiens, UniProt Q13188)
Chain of MST2 (Q13188 whole entry): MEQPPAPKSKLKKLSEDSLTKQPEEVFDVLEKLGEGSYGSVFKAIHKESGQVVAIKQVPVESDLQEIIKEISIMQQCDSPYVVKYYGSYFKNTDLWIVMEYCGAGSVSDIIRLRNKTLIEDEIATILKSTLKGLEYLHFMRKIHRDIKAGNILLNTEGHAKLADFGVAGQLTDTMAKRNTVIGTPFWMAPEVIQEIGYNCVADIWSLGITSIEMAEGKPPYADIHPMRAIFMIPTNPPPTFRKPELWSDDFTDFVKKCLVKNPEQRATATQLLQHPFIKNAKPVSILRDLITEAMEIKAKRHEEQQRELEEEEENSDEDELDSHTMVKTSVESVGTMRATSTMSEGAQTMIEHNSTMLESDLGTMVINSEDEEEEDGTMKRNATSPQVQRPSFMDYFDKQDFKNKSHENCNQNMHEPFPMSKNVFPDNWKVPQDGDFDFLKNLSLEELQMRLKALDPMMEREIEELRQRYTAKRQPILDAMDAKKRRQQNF
Description: as §1, §2

MYT1 = MYT1 (Homo sapiens, UniProt Q99640)
Description: as §1, §2

PYK2 = PYK2 (Homo sapiens, UniProt Q14289)
Chain of PYK2 (Q14289 whole entry): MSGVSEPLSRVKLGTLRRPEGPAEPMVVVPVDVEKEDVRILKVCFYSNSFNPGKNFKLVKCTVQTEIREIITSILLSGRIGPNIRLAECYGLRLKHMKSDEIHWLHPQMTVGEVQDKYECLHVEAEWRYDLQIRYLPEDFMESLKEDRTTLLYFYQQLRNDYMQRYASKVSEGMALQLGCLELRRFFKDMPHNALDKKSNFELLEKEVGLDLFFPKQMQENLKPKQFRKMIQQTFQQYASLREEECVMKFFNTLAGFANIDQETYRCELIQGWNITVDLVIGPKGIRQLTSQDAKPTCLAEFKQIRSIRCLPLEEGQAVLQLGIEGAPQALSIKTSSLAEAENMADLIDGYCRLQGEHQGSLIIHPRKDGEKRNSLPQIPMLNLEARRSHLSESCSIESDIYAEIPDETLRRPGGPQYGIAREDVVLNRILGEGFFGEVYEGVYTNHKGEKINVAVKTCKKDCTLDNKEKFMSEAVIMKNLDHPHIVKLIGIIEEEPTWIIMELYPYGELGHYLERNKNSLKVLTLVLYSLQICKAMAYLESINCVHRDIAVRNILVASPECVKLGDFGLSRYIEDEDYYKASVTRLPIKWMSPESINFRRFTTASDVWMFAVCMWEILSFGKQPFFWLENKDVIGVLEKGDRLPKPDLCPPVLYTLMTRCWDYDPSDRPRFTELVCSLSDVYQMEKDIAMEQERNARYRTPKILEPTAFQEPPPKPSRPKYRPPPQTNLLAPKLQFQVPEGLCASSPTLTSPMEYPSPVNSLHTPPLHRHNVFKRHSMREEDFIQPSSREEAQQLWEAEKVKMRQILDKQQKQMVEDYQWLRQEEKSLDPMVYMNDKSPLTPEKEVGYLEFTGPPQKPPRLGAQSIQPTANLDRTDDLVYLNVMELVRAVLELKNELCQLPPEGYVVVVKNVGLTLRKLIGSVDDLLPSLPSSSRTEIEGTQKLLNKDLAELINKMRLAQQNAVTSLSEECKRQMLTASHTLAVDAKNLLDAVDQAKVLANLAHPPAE
Description: as §1, §2

RSK2 = RSK2 (Homo sapiens, UniProt P51812)
Chain of RSK2 (P51812 whole entry): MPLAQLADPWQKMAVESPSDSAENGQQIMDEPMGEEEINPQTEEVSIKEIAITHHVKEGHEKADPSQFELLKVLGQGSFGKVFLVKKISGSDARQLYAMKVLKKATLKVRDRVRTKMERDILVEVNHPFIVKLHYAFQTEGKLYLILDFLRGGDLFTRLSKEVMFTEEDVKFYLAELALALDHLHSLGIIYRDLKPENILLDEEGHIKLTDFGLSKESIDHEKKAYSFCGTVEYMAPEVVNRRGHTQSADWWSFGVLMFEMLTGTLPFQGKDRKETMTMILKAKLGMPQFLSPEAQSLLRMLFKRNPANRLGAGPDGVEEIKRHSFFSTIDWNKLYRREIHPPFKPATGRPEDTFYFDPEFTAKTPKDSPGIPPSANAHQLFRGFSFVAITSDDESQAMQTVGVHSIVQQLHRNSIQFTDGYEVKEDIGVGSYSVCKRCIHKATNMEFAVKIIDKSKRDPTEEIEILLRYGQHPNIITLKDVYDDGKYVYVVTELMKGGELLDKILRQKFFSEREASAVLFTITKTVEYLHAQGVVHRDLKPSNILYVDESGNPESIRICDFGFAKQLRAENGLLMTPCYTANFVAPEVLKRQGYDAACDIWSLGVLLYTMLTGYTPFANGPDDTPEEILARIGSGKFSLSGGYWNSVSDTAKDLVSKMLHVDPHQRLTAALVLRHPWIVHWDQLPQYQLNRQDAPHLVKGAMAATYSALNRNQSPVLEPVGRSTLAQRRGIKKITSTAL
Description: as §1, §2

RSK3 = RSK3 (Homo sapiens, UniProt Q15349)
Description: as §1, §2

TEC = target: T1, TEC (Homo sapiens, UniProt P42680)
T1 sequence (P42680 1-631): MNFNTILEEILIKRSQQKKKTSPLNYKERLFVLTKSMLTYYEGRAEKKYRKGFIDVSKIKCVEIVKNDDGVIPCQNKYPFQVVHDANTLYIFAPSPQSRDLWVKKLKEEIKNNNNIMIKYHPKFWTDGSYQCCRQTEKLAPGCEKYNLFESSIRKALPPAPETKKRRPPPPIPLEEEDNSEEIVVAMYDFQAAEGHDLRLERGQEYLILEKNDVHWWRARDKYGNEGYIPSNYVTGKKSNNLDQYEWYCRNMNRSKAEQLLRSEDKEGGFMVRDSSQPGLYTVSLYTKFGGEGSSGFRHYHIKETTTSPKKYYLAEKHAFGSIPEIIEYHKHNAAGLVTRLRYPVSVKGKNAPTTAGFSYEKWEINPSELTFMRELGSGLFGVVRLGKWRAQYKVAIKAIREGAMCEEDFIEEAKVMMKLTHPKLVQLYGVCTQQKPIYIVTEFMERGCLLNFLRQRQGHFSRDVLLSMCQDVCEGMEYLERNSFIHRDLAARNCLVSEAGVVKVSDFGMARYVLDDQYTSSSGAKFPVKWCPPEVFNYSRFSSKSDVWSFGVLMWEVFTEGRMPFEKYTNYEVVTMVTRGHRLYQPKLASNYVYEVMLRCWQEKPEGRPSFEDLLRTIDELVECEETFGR
Description: as §1, §2

YES = YES (Homo sapiens, UniProt P07947)
Chain of YES (P07947 whole entry): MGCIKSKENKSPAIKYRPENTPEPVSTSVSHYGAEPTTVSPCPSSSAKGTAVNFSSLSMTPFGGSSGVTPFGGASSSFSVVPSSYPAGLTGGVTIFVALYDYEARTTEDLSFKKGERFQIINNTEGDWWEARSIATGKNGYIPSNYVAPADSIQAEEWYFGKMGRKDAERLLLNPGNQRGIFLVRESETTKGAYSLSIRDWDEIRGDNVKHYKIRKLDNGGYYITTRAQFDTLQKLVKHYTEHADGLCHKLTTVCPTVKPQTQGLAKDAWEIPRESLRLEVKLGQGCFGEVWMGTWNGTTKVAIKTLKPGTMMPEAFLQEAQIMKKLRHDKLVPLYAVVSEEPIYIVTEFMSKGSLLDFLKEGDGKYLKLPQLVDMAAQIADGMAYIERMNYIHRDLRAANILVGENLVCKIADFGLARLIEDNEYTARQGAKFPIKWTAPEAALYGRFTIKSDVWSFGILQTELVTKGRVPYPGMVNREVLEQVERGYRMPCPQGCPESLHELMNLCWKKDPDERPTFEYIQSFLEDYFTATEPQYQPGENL
Description: as §1, §2

## CS(=O)(=O)Nc1ccccc1Nc1nc(Nc2cccc(OCCN)c2)ncc1Cl [CZC31326, N-(2-(2-(3-(2-aminoethoxy)phenylamino)-5-chloropyrimidin-4-ylamino)phenyl)methanesulfonamide]
CHK1
  Competition %: 94.8%
CaMK2d
  inhibition at 10 µM: 78%
CaMK2g
  inhibition at 10 µM: 75.9%
GSK3B
  inhibition at 10 µM: 94.6%
JNK1
  Competition %: 87%
LOK
  Competition %: 86.9%
MAP2K3
  inhibition at 10 µM: 93.9%
MARK3
  inhibition at 10 µM: 97%
MLK3
  Competition %: 97.5%
MPSK1
  inhibition at 10 µM: 93.3%
MST2
  inhibition at 10 µM: 98.2%
MYT1
  Competition %: 93.1%
PYK2
  inhibition at 10 µM: 96.1%
RSK2
  inhibition at 10 µM: 97.7%
RSK3
  inhibition at 10 µM: 96.9%
TEC
  inhibition at 10 µM: 92.8%
YES
  inhibition at 10 µM: 89.6%
